Patent US20250228835A1, “PYRIDINYLOXYPYRIDINES AND RELATED COMPOUNDS AND THEIR USE IN TREATING MEDICAL CONDITIONS” (Rectify Pharmaceuticals, Inc., priority 2024, published 2025)

Key:
[1] = target: T1, ABCD2 WT (Homo sapiens, UniProt Q9UBJ2); test: D2 correction dose-response assay: ABCD2 WT HiBit protein expression; type: cell-based; details: HEK-293/ABCD2 WT cells, 24 hours treatment, HiBit luminescence; class combines EC50 and Mean MaxAct (fold); read-out: ABCD2 WT EC50, Emax
T1 construct: expressed in transfected cells
T1 sequence (Q9UBJ2 1-740): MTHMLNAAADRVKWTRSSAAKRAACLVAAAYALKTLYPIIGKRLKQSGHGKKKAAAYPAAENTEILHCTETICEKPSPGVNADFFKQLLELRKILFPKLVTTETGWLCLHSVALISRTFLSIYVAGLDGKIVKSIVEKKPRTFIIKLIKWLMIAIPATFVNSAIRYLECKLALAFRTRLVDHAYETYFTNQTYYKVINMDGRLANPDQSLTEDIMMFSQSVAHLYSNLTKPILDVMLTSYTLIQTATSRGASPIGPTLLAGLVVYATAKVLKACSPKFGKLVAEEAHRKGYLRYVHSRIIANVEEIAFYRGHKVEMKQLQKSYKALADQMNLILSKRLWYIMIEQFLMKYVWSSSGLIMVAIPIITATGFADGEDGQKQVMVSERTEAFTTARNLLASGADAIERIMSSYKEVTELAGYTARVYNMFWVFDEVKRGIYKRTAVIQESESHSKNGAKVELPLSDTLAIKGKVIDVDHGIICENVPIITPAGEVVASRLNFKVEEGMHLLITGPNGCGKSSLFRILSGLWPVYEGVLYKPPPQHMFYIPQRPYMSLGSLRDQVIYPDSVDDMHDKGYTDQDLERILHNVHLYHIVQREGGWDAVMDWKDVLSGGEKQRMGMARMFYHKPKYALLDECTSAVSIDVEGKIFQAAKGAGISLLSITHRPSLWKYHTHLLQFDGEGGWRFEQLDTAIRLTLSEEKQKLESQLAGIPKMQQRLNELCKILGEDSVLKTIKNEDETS
In short: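 HEK-293 cells stably expressing HiBit-tagged human ABCD2 WT were treated with 11 doses (3-fold dilutions, top final 30 μM, 0.3% DMSO) for 24 h at 37 °C. Expression was measured by HiBit lytic luminescence after 1 h at 25 °C, giving EC50 and Emax.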

[2] = target: T2, ABCC6 WT (Homo sapiens, UniProt O95255); test: ABCC6 WT assay: HiBit protein expression; type: cell-based; details: HEK-293 cells transiently expressing HiBit-tagged ABCC6 WT; 24 h treatment; top concentration 20 μM; read-out: ABCC6 WT EC50, Emax
T2 construct: expressed in transfected cells; host or cells: HEK-293 (transient, Lipofectamine 2000)
In short: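 HEK-293 cells transiently transfected with HiBit-tagged human ABCC6 WT cDNA, seeded 24 h post-transfection, treated 24 h at 37° C with ten 2-fold doses (top 20 μM final, 0.15% DMSO). HiBit lytic luminescence reports protein expression; Emax and EC50 derived.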

T2 sequence (O95255 whole entry): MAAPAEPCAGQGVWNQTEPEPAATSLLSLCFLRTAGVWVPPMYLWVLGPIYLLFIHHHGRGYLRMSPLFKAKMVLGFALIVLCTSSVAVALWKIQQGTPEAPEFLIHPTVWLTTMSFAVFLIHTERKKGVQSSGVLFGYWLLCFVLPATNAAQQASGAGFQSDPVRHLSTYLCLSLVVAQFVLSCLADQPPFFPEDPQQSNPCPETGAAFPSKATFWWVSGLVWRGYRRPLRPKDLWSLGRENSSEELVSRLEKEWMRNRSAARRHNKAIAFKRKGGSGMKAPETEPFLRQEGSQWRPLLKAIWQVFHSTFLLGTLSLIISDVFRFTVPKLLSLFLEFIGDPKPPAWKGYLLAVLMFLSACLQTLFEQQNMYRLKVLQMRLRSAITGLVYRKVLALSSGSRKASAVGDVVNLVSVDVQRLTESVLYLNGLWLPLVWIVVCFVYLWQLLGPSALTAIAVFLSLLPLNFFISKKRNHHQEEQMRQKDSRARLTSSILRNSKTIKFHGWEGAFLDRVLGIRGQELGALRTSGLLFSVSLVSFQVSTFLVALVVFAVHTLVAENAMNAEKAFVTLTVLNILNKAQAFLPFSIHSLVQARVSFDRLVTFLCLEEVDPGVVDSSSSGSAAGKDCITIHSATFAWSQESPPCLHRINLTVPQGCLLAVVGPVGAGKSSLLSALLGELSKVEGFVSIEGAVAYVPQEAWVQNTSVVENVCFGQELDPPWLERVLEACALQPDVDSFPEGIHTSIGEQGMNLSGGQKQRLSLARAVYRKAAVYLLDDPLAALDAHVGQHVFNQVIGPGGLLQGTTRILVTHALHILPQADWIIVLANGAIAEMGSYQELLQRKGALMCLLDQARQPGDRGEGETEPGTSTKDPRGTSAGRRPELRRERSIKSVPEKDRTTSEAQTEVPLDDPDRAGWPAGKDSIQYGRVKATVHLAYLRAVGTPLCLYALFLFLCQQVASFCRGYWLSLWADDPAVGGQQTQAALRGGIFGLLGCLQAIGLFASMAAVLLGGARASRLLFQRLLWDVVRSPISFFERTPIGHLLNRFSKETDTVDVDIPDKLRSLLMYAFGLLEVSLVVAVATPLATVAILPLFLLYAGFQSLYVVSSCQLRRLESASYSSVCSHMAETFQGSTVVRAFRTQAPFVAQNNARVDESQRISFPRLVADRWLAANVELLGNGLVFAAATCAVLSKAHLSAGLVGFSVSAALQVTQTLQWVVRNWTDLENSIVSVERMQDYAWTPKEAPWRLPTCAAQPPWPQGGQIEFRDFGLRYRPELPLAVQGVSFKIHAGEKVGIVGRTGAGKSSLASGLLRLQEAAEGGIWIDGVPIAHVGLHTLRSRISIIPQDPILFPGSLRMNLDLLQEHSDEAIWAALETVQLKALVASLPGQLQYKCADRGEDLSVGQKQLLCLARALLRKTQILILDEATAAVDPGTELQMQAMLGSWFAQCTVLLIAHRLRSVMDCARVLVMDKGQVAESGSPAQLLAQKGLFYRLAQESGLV

Row | EC50 [1] [µM] | EC50 [2] [µM] | Structure (SMILES)
1 | < 25 | < 25 | Cc1cc(C)c(Oc2nc(-c3cncc(Cl)c3)ccc2S(=O)(=O)Nc2cnn(C)c2)c(C2CC2)c1 [Compound I-75]
2 | > 25 | ≥ 25 | Cc1cc(C)c(Oc2nc(-c3cncc(Cl)c3)ccc2NS(=O)(=O)Cc2ccccc2)c(C)c1 [Compound I-65]
3 | 1 to 10 | < 25 | Cc1cc(C)c(Oc2nc(-c3cncc(Cl)c3)ncc2S(N)(=O)=O)c(C)c1Cl [Compound I-93]
4 | > 25 | 1 to 10 | Cc1cc(C)c(Oc2nc(-c3cncc(Cl)c3)ccc2N(C)S(=O)(=O)c2cccnc2)c(C2CC2)c1 [Compound I-53]
5 | 10 to 25 | 10 to 25 | Cc1cc(C)c(Oc2nc(-c3cn[nH]c3)ccc2NS(C)(=O)=O)c(C2CC2)c1 [Compound I-2]
6 | > 25 | ≥ 25 | Cc1cc(C)c(Oc2nc(-c3cncc(Cl)c3)ccc2NS(=O)(=O)C(C)(C)C)c(C)c1 [Compound I-68]
7 | 1 to 10 | 1 to 10 | Cc1cc(C)c(Oc2nc(-c3cncc(Cl)c3)ccc2N(C2CC2)S(C)(=O)=O)c(C)c1 [Compound I-42]
8 | < 1 | < 1 | Cc1cc(C)c(Oc2nc(-c3cncc(Cl)c3)ccc2N(C)S(C)(=O)=O)c(C)c1 [Compound I-48]
9 | 1 to 10 | < 1 | Cc1cc(C)c(Oc2cc(-c3cncc(Cl)c3)ncc2NS(C)(=O)=O)c(C)c1 [Compound I-56]
10 | 10 to 25 | 1 to 10 | Cc1cc(C)c(Oc2nc(N3CCN(S(=O)(=O)C4CC4)CC3)ccc2NS(C)(=O)=O)c(C)c1 [Compound I-44]
11 | < 1 | < 1 | Cc1cc(C)c(Oc2nc(-c3cncc(Cl)c3)ccc2NS(C)(=O)=O)c(C2CC2)c1 [Compound I-57]
12 | < 1 | < 1 | Cc1cc(C)c(Oc2nc(-c3ccc(C#N)nc3)ccc2NS(C)(=O)=O)c(C)c1 [Compound I-45]
13 | < 25 | < 1 | Cc1cc(C)c(Oc2nc(-c3cncc(Cl)c3)ccc2NS(=O)(=O)c2cccnc2)c(C)c1 [Compound I-71]
14 | 1 to 10 | 1 to 10 | Cc1cc(C)c(Oc2nc(-c3cncc(Cl)c3)ccc2S(=O)(=O)NCc2ccccc2)c(C)c1 [Compound I-88]
15 | < 1 | < 1 | Cc1cc(C)c(Oc2nc(-c3cncc(Cl)c3)ccc2N(C)S(=O)(=O)c2cnn(C)c2)c(C)c1 [Compound I-70]
16 | 1 to 10 | 1 to 10 | Cc1cc(C)c(Oc2cc(-c3cncc(Cl)c3)cnc2NS(=O)(=O)c2cnn(C)c2)c(C)c1 [Compound I-61]
17 | 1 to 10 | < 1 | Cc1cc(C)c(Oc2nc(-c3cncc(Cl)c3)cnc2S(N)(=O)=O)c(C)c1Cl [Compound I-90]
18 | > 25 | < 25 | Cc1cc(C)c(Oc2nc(-c3cncc(Cl)c3)ccc2NS(=O)(=O)c2cnn(C)c2)c(C2CC2)c1 [Compound I-58]
19 | 1 to 10 | < 1 | Cc1ccc(Oc2nc(-c3cncc(C#N)c3)ccc2NS(C)(=O)=O)c(C)n1 [Compound I-3]
20 | 1 to 10 | < 1 | Cc1cc(C)c(Oc2nc(-c3cncc(Cl)c3)ccc2NS(=O)(=O)c2cccnc2)c(C2CC2)c1 [Compound I-54]
21 | > 25 | < 1 | Cc1cc(C)c(Oc2nc(-c3cncc(Cl)c3)ccc2N(C)S(=O)(=O)c2cccnc2)c(C)c1 [Compound I-69]
22 | 1 to 10 | 1 to 10 | Cc1cc(C)c(Oc2nc(-c3cncc(Cl)c3)ccc2N2CCCS2(=O)=O)c(C)c1 [Compound I-67]
23 | 1 to 10 | ≥ 25 | Cc1cc(C)c(Oc2nc(-c3cncc(Cl)c3)ccc2S(=O)(=O)NCc2ccccn2)c(C2CC2)c1 [Compound I-76]
24 | > 25 | ≥ 25 | Cc1cc(C)c(Oc2nc(N3CC4(C3)CN(S(=O)(=O)C3CC3)C4)ccc2NS(C)(=O)=O)c(C)c1 [Compound I-43]
25 | < 1 | < 1 | Cc1cc(C)c(Oc2nc(-c3cncc(Cl)c3)ccc2N(C)S(=O)(=O)c2cnn(C)c2)c(C2CC2)c1 [Compound I-52]

Row | EC50 [1] [µM] | EC50 [2] [µM] | Structure (SMILES)
26 | < 1 | < 1 | Cc1cc(C)c(Oc2nc(-c3cncc(Cl)c3)ccc2NS(C)(=O)=O)c(C)c1 [Compound I-55]
27 | 1 to 10 | 1 to 10 | CNS(=O)(=O)c1ccc(N2CCN(C(=O)C3CC3)CC2)nc1Oc1c(C)cc(C)cc1C [Compound I-73]
28 | 1 to 10 | 1 to 10 | Cc1cc(C)c(Oc2nc(N3CCN(C(=O)C4CC4)CC3)ccc2NS(C)(=O)=O)c(C)c1 [Compound I-47]
29 | 1 to 10 | 1 to 10 | Cc1cc(C)c(Oc2nc(-c3cncc(Cl)c3)ccc2S(=O)(=O)Nc2cnn(C)c2)c(C)c1 [Compound I-94]
30 | 1 to 10 | ≥ 25 | Cc1cc(C)c(Oc2cc(-c3cncc(Cl)c3)cnc2N(C)S(=O)(=O)c2cnn(C)c2)c(C)c1 [Compound I-59]
31 | 1 to 10 | ≥ 25 | Cc1cc(C)c(Oc2nc(-c3cncc(Cl)c3)ccc2S(=O)(=O)NC(c2ccccn2)C(F)(F)F)c(C)c1 (single isomer, unassigned) [Compound I-80]
32 | 1 to 10 | 1 to 10 | Cc1cc(C)c(Oc2nc(-c3cncc(Cl)c3)ccc2S(=O)(=O)NCc2ccccn2)c(C)c1 [Compound I-86]
33 | < 1 | 1 to 10 | Cc1cc(C)c(Oc2nc(-c3cncc(Cl)c3)ccc2NS(=O)(=O)c2cnn(C)c2)c(C)c1 [Compound I-72]
34 | > 25 | 1 to 10 | CNS(=O)(=O)c1ccc(N2CCN(C)C(=O)C2)nc1Oc1c(C)cc(C)cc1C [Compound I-92]
35 | 1 to 10 | < 25 | CNS(=O)(=O)c1ncc(-c2cncc(Cl)c2)nc1Oc1c(C)cc(C)c(Cl)c1C [Compound I-89]
36 | < 1 | < 1 | Cc1cc(C)c(Oc2nc(-c3cncc(Cl)c3)ccc2NS(C)(=O)=O)c(C)n1 [Compound I-46]
37 | 1 to 10 | < 1 | COC1CC(NS(=O)(=O)c2ccc(-c3cncc(Cl)c3)nc2Oc2c(C)cc(C)cc2C)C1 (stereo not shown) [Compound I-78]
38 | > 25 | < 1 | Cc1cc(C)c(Oc2nc(-c3cncc(Cl)c3)ccc2NS(=O)(=O)C2CC2)c(C)c1 [Compound I-49]
39 | 1 to 10 | 1 to 10 | Cc1cc(C)c(Oc2cc(-c3cncc(Cl)c3)cnc2NS(C)(=O)=O)c(C)c1 [Compound I-60]
40 | > 25 | < 1 | COC1CC(S(=O)(=O)Nc2ccc(-c3cncc(Cl)c3)nc2Oc2c(C)cc(C)cc2C)C1 (stereo not shown) [Compound I-51]
41 | < 25 | 1 to 10 | COC1CC(NS(=O)(=O)c2ccc(-c3cncc(Cl)c3)nc2Oc2c(C)cc(C)cc2C2CC2)C1 (stereo not shown) [Compound I-74]
42 | 1 to 10 | 1 to 10 | Cc1cc(C)c(Oc2nc(-c3cncc(Cl)c3)ccc2S(=O)(=O)NC(c2ccccn2)C(F)(F)F)c(C)c1 (single isomer, unassigned) [Compound I-79]
43 | 1 to 10 | < 1 | Cc1cc(C)c(Oc2nc(-c3cncc(C(N)=O)c3)ccc2NS(C)(=O)=O)c(C2CC2)n1 [Compound I-1]
44 | 10 to 25 | ≥ 25 | CNS(=O)(=O)c1cnc(-c2cncc(Cl)c2)cc1Oc1c(C)cc(C)cc1C [Compound I-84]
45 | 1 to 10 | 1 to 10 | Cc1cc(C)c(Oc2nc(-c3cncc(Cl)c3)ccc2S(=O)(=O)N[C@H](c2ccccc2)C(F)(F)F)c(C)c1 [Compound I-81]
46 | 1 to 10 | 1 to 10 | Cc1cc(C)c(Oc2nc(-c3cncc(Cl)c3)ccc2S(=O)(=O)N[C@@H](c2ccccc2)C(F)(F)F)c(C)c1 [Compound I-83]
47 | > 25 | < 25 | CC(=O)NC1CN(c2ccc(NS(=O)(=O)c3cccnc3)c(Oc3c(C)cc(C)cc3C3CC3)n2)C1 [Compound I-50]
48 | 1 to 10 | < 25 | Cc1cc(C)c(Oc2nc(-c3cncc(Cl)c3)ccc2N(C)S(=O)(=O)Cc2ccccc2)c(C)c1 [Compound I-64]
49 | 1 to 10 | ≥ 25 | Cc1cc(C)c(Oc2nc(-c3cncc(Cl)c3)ccc2S(=O)(=O)N(C)Cc2ccccc2)c(C)c1 [Compound I-85]
50 | > 25 | 1 to 10 | Cc1cc(C)c(Oc2nc(-c3cncc(Cl)c3)ccc2S(=O)(=O)NCc2cc(C(F)(F)F)ccn2)c(C)c1 [Compound I-87]
